Measured values taken from ChEMBL document CHEMBL1201862, “PubChem BioAssay data set” (2004).
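96-well plates; 48 h exposure; 5 concentrations. Endpoints by linear interpolation between flanking doses. Not reached: highest tested concentration assigned. Here, GI50 denotes the concentration required for 50% inhibition of growth.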 Activity calls are given as the source filed them. Rule as the data show it: active = GI50 up to about 1.1 µM and inactive = higher.

Assays:
Experiment in all cases: NCI anticancer screen, dose series, 48 h
786-0 = system: 786-0
A549 = system: A549
ACHN = system: ACHN
BT-549 = system: BT-549
CCRF-CEM = system: CCRF-CEM
DU-145 = system: DU-145
K562 = system: K562
MDA-N = system: MDA-N
MOLT-4 = system: MOLT-4
Malme-3M = system: Malme-3M
OVCAR-3 = system: OVCAR-3
PC-3 = system: PC-3
RPMI-8226 = system: RPMI-8226
SF-268 = system: SF-268
SN12C = system: SN12C
SNB-19 = system: SNB-19
U-251 = system: U-251
RXF 393 = system: RXF 393
UACC-257 = system: UACC-257

Measured: GI50

CS(=O)(=O)NC12CCC(c3ccccc31)c1ccccc12
inactive: 786-0 > 100 µM | A549 > 100 µM | ACHN > 100 µM | BT-549 > 100 µM | CCRF-CEM > 100 µM | DU-145 > 100 µM | K562 > 100 µM | MDA-N > 100 µM | MOLT-4 > 100 µM | Malme-3M > 100 µM | OVCAR-3 > 100 µM | PC-3 > 100 µM | RPMI-8226 > 100 µM | SF-268 > 100 µM | SN12C > 100 µM | SNB-19 > 100 µM | U-251 > 100 µM

CCOC(=O)Cn1c(=O)c2nc(SC)sc2n(-c2ccccc2)c1=O
inactive: 786-0 > 100 µM | A549 > 100 µM | ACHN > 100 µM | BT-549 > 100 µM | CCRF-CEM > 100 µM | K562 > 100 µM | MDA-N > 100 µM | MOLT-4 > 100 µM | Malme-3M > 100 µM | PC-3 > 100 µM | RPMI-8226 > 100 µM | RXF 393 > 100 µM | SN12C > 100 µM | SNB-19 > 100 µM | U-251 > 100 µM | UACC-257 > 100 µM

CSc1ccsc1-c1sc(-c2cc(SC)c(-c3sc(-c4cc(SC)c(-c5sccc5SC)s4)cc3SC)s2)cc1SC
inactive: 786-0 15.3 µM | A549 90.8 µM | ACHN 32.9 µM | BT-549 64.3 µM | CCRF-CEM 4.26 µM | DU-145 96.8 µM | K562 46.8 µM | MOLT-4 18 µM | Malme-3M 29.4 µM | OVCAR-3 49.8 µM | PC-3 76.4 µM | RPMI-8226 3.44 µM | RXF 393 > 100 µM | SF-268 > 100 µM | SN12C 42.3 µM | SNB-19 > 100 µM | U-251 67.3 µM | UACC-257 > 100 µM

O=c1[nH]n(CCc2ccccc2CCl)c2ccc([N+](=O)[O-])cc12
inactive: 786-0 93.8 µM | A549 99.1 µM | ACHN > 100 µM | BT-549 33.3 µM | CCRF-CEM 37 µM | DU-145 77.3 µM | K562 38.9 µM | MOLT-4 72.8 µM | Malme-3M > 100 µM | OVCAR-3 > 100 µM | PC-3 78.3 µM | RPMI-8226 > 100 µM | RXF 393 92.3 µM | SF-268 > 100 µM | SN12C > 100 µM | SNB-19 > 100 µM | U-251 81.8 µM | UACC-257 70.6 µM

CCOC(=O)NC(C(C(=O)OCC)C(=O)OCC)(C(F)(F)F)C(F)(F)F
inactive: 786-0 > 100 µM | A549 > 100 µM | ACHN > 100 µM | CCRF-CEM > 100 µM | DU-145 > 100 µM | K562 > 100 µM | MDA-N > 100 µM | MOLT-4 > 100 µM | Malme-3M > 100 µM | OVCAR-3 > 100 µM | PC-3 > 100 µM | RPMI-8226 > 100 µM | RXF 393 > 100 µM | SF-268 > 100 µM | SN12C > 100 µM | SNB-19 > 100 µM | U-251 > 100 µM | UACC-257 > 100 µM

CCNCC(=O)Nc1ccc2c(c1)C(=O)c1ccc(NC(=O)CNCC)cc1C2=O
inactive: 786-0 2.14 µM | A549 2.41 µM | ACHN 1.92 µM | CCRF-CEM 2.9 µM | DU-145 2.69 µM | K562 1.78 µM | MDA-N 4.59 µM | Malme-3M 15.5 µM | OVCAR-3 2.59 µM | PC-3 2.76 µM | RXF 393 2.53 µM | SF-268 3.27 µM | SN12C 1.87 µM | SNB-19 2.7 µM | U-251 1.72 µM | UACC-257 5.98 µM

COC(=O)CCc1ccc2c(c1)CC1(Cc3ccccc3C1)C2
inactive: 786-0 > 100 µM | A549 98.4 µM | ACHN > 100 µM | CCRF-CEM 34.6 µM | K562 > 100 µM | MDA-N > 100 µM | MOLT-4 77.1 µM | Malme-3M > 100 µM | OVCAR-3 > 100 µM | PC-3 > 100 µM | RPMI-8226 > 100 µM | RXF 393 > 100 µM | SN12C > 100 µM | U-251 > 100 µM | UACC-257 > 100 µM

CCn1c2ccccc2c(=O)c2c(OC)ccc(OC)c21
inactive: 786-0 51.3 µM | A549 55.6 µM | ACHN 35.9 µM | CCRF-CEM 48 µM | K562 37.2 µM | MOLT-4 42.5 µM | Malme-3M 68.5 µM | OVCAR-3 34 µM | RPMI-8226 35.5 µM | RXF 393 32.5 µM | SF-268 83.9 µM | SN12C 42.5 µM | SNB-19 49.9 µM | U-251 64.6 µM | UACC-257 41.4 µM
